The values that follow come from paper PMC10186366 (ACS Pharmacology & Translational Science, 2023).

Values joined by “and” are separate entries in the source; they are usually repeats but may differ in a detail not shown here. Equal values may be shown once.

Test [1] has as its system SHMT2 (mitochondrial C1 metabolism) in KB tumor cells. Put plainly: Targeted metabolomics flux analysis with [2,3,3-2H]serine in KB cells. The format is cell-based, human. Conditions: 0.1 μM compound, 250 μM [2,3,3-2H]serine, versus vehicle-treated cells. The text has this:
Serine is catabolized in the mitochondria via SHMT2, which converts serine to glycine and 5,10-methylene THF, the latter of which is metabolized by MTHFD2 to 10-CHOTHF and by MTHFD1L to formate (Figure 7).
The cells were processed for liquid chromatography–mass spectrometry (LC–MS) analysis of total serine and glycine, and deuterated serine (M + 3, M + 2, M + 1, and M + 0 serine, where M + n represents species with n deuterium atoms) and glycine (M + 1 and M + 0) isotopomers. The results are shown in Figure 8 and are compared to those for control (vehicle-treated) cells (labeled “N/A”).
Figure 8 Metabolomics flux analysis with [2,3,3-^2H]serine to assay mitochondrial C1 metabolism via SHMT2. (A) A schematic of [2,3,3-^2H]serine metabolism is shown. Heavy (^2H) atoms in serine (colored circles) are metabolized via SHMT2 initially followed by MTHFD2 and MTHFD1L to formate. (B, C) Total serine and glycine and the distribution of the serine (M + n, n = 0−3) and glycine (n = 0 or 1) isotopomers are shown. The loss of M + 3 serine corresponding to the metabolism of [2,3,3-^2H]serine to M + 1 glycine is a direct measure of SHMT2 activity in the cells.[45] Experimental methods are described in the Experimental Section. Results are shown as mean values plus/minus standard deviations (n = 3). *P < 0.05; **P < 0.01. […]
KB cells (1 × 10[6]) were seeded in each of three 60 mm dishes in folate-, serine-, and glycine-free RPMI1640 supplemented with 10% DFBS, 1% penicillin/streptomycin, 2 mM L-glutamine, 285 μM serine, 130 μM glycine, and 2 nM leucovorin. […] The targeted metabolites were quantitatively determined using the AB Sciex QTRAP 6500 LC–MS/MS system. […] Isotopomers were detected using multiple reaction monitoring (MRM) at the positive ionization mode. […] Absolute metabolite concentrations were calculated from calibration curves and then normalized to total protein concentrations measured from the postextraction pellet (solubilized in 0.5 N NaOH) using the Folin-phenol method.[53] […] To correct for multiple comparisons, adjusted p values were determined using Holm’s method.

A further test addresses T1, SHMT2 (Homo sapiens, UniProt P34897).
T1 construct: N-terminal His6-tagged SHMT2 (residues 30–504); made in house; host or cells: E. coli Rosetta (DE3)pLysS
T1 sequence (P34897 30-504): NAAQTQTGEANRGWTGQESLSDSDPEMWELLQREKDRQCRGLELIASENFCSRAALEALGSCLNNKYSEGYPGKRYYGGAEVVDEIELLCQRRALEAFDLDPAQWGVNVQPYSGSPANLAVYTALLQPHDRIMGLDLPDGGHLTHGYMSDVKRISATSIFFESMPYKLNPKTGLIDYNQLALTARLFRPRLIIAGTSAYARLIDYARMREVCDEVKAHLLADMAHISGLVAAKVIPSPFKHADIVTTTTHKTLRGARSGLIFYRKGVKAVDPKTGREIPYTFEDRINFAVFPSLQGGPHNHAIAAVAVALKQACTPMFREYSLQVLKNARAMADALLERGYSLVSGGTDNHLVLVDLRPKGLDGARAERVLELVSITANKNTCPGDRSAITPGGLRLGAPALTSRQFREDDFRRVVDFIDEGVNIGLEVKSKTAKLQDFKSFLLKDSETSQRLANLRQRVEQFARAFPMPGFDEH
Put plainly: SHMT2 coupled enzyme assay with MTHFD2 (NADH production). The format is biochemical. Conditions: mean (standard error), at least three replicate assays.

In the next test the test system is KB tumor cells. Put plainly: Metabolite rescue of growth inhibition in KB cells. The format is cell-based, human. The following applies: glycine- and nucleoside-free media; for Protection from growth inhibition by adenosine: inhibitor up to 1000 nM, 60 μM adenosine alone. How it is done: Upper panel: schematic of C1 metabolism. Undefined abbreviations include the following: DHF, dihydrofolate; THF, tetrahydrofolate; FAICAR, formyl 5-aminoimidazole-4-carboxamide ribonucleotide; fGAR, formyl GAR; and 5,10-meTHF, 5,10-methylene tetrahydrofolate. Lower panels: KB cells were plated (4000 cells/well) in glycine-, nucleoside-, and folate-free RPMI 1640 medium with 10% dialyzed fetal bovine serum, antibiotics, L-glutamine, and 2 nM leucovorin over a range of inhibitor concentrations in the presence of adenosine (60 μM), glycine (160 μM), thymidine (10 μM), or AICA (320 μM). As shown, combined glycine plus adenosine or AICA was also tested to identify potential mitochondrial C1 targeting.[45] Cell proliferation was assayed with a fluorescence-based assay.[26] Data are representative of at least triplicate experiments (presented as mean values plus/minus standard errors). Methods are described in the Experimental Section, and additional metabolite rescue data for 4, 5, and 8–11 are presented in Figure S3 (Supporting Information).
Metabolite “rescue” experiments have been used to identify targeted pathways for novel antifolate inhibitors including de novo purine nucleotide and thymidylate biosynthesis (protection by adenosine and thymidine, respectively)[25]−[27],[29],[30],[32],[43],[45]−[47] and mitochondrial C1 metabolism (protection by glycine and adenosine).[45] To gain insights into the targeted pathways that contribute to the loss of KB tumor cell proliferation upon treatment with compounds 3–9, we tested the reversal of growth inhibition by the active compounds in Table 1 (up to 1000 nM) in glycine- and nucleoside-free media in the presence of 60 μM adenosine, 160 μM glycine, or 10 μM thymidine alone or with combined adenosine and glycine. The use of glycine- and nucleoside-free media for these experiments expands the ability to identify causal intracellular targets (including previously unrecognized mitochondrial targets[45]) that can be confirmed by targeted metabolomics and direct in vitro assays (below). […] The results of these experiments are shown in Figure 7 (lower panel) and in Figure S3 (Supporting Information).
AICA circumvents the first folate-dependent enzyme, GARFTase, and is directly metabolized to ZMP (AICAR), thus providing a substrate for AICARFTase[26],[32],[46] (Figure 7, upper panel). This distinguishes primary inhibition at GARFTase (protection by AICA) versus AICARFTase (incomplete protection by AICA) for inhibitors of de novo purine biosynthesis.[25]
Additional proliferation assays with metabolite rescue used KB cells to identify the targeted pathway and enzyme(s) in folate- and glycine-free RPMI1640, DFBS, 2 mM glutamine, and antibiotics. […] These assays have been previously described.[25],[26],[45]

Test [2] relates to RT16 CHO cells (expresses only human FRα). The following applies: 96 h; mean (standard error); previously published; cited from earlier work.
For test [3], the system named is PC43-10 CHO cells (expresses only human RFC). Conditions: 96 h; mean (standard error); previously published; cited from earlier work.
The test system of test [4] is D4 CHO cells (expresses only human FRβ). Conditions: 96 h; mean (standard error); previously published; cited from earlier work.
The subject of test [5] is KB human tumor cells (RFC/FRα/PCFT). The following applies: 96 h, no folic acid; mean (standard error); previously published; cited from earlier work.
The next test addresses T2, human GARFTase (Homo sapiens, UniProt P22102).
T2 construct: GARFTase (formyltransferase domain; residues 808–1010); made in house; host or cells: E. coli Rosetta (DE3)pLysS
T2 sequence (P22102 808-1010): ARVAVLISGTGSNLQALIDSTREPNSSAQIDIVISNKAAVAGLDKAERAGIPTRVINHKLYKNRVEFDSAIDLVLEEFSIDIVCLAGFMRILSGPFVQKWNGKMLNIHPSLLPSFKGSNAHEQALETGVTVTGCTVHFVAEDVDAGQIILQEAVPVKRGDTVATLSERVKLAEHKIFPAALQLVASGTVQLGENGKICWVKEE
The arrangement: method as in PMID 33773393, PMID 31289137, PMID 27439469. The following applies: mean (standard error); previously reported; cited from earlier work.

In the case of `Nc1nc2sc(CCCCc3ccc(C(=O)N[C@@H](CCC(=O)O)C(=O)O)cc3)cc2c(=O)[nH]1` [Compound 2], in test [1], the “Increase in M + 3 serine” value was 2–4 fold. On SHMT2, affinity was put at a Ki of 12400 nM. The “Protection from growth inhibition by glycine plus adenosine over adenosine alone” value with KB tumor cells (160 μM glycine combined with 60 μM adenosine) was “substantially enhanced and was complete”. The IC50 in test [2] was 9 nM; in test [3] it was greater than 1000 nM; in test [4], 20 nM.

`Nc1nc2sc(CCCc3csc(C(=O)N[C@@H](CCC(=O)O)C(=O)O)c3)cc2c(=O)[nH]1` [Compound 10]: the concentration for half-maximal inhibition (IC50) in test [5] is 1.48 nM; in test [2], 0.4 nM and 0.44 nM; in test [3], greater than 1000 nM; in test [4], 0.24 nM. Also, the “Protection from growth inhibition by adenosine” value with KB tumor cells is given as “completely protective”.

Take `Nc1nc2sc(CCCCc3csc(C(=O)N[C@@H](CCC(=O)O)C(=O)O)c3)cc2c(=O)[nH]1` [Compound 11]: the IC50 in test [5] is 6.85 nM; in test [2] it was 5.62 nM; in test [3], greater than 1000 nM; in test [4], 5.63 nM. The “Protection from growth inhibition by adenosine” value in the test with KB tumor cells is reported as “completely protective”. In addition, the inhibitory constant (Ki) at human GARFTase is greater than 150000 nM.

Take `Nc1nc2[nH]cc(CCc3ccc(C(=O)N[C@@H](CCC(=O)O)C(=O)O)cc3)c2c(=O)[nH]1` [PMX, reference compound]: the concentration for half-maximal inhibition (IC50) in test [2] was 42 nM; in test [4], 60 nM.

One may read the Ki as a dissociation constant, usually derived from enzyme kinetics or from competition with a known ligand. The term IC50 denotes the concentration that gives 50% inhibition.
